Molecules are shown by their SMILES.

In ChEMBL document CHEMBL5465560, “Selectivity Literature for EUbOPEN Chemogenomic Library” (2024) one finds % of control, % binding and % of inhibition data, which are given here for 7 compounds.

The target of assay [1] is Protein kinase C eta type (Homo sapiens) (UniProt P24723). The assay can be described thus: Selectivity interaction (Ambit KINOMEscan and KiNATiv profiling in Jurkat cells) EUB0000090b PRKCH. The settings on record: at 1 µM. The assay is classed as cell-based.
For assay [2], the target named is T1, Serine/threonine-protein kinase 36 (Homo sapiens) (UniProt Q9NRP7).
T1 sequence (whole entry): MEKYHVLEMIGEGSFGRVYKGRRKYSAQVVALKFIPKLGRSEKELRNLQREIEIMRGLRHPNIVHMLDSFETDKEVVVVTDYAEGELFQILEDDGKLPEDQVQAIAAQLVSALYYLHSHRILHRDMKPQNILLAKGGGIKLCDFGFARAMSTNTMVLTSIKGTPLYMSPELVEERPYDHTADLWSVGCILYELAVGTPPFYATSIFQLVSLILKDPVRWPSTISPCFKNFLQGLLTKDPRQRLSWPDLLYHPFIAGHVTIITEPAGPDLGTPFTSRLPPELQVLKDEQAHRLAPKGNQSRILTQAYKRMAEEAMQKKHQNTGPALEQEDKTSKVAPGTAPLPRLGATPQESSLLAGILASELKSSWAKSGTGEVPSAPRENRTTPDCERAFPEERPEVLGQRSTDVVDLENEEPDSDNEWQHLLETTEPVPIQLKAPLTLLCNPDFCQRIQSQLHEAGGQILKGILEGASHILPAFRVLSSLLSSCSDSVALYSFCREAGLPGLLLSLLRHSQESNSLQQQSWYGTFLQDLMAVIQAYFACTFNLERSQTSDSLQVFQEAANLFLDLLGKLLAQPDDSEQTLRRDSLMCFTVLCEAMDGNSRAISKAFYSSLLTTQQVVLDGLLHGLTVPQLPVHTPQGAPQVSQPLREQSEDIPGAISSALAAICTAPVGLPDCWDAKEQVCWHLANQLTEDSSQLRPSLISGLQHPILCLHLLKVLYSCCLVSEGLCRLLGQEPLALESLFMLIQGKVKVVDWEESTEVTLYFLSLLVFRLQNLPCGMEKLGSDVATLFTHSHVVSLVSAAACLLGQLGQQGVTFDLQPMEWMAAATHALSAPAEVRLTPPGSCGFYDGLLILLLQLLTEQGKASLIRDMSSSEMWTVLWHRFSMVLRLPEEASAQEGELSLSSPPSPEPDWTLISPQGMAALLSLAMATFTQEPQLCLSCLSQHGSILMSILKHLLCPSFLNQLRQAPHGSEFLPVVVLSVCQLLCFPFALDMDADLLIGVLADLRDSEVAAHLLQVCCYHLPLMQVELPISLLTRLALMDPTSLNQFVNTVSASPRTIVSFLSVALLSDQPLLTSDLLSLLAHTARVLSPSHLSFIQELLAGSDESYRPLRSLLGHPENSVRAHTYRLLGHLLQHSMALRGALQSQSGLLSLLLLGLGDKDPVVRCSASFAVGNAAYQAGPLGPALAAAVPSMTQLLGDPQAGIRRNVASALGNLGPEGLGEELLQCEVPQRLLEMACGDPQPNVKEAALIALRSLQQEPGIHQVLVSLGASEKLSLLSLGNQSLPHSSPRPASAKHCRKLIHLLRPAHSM
The settings on record: at 10 µM.

Assay [3] deals with Serine/threonine-protein kinase Nek6 (Homo sapiens) (UniProt Q9HC98). The assay can be described thus: Selectivity interaction (KinomeScan (DiscoverX)) EUB0000666a NEK6. The settings on record: at 10 µM.
The target of assay [4] is Ribosomal protein S6 kinase beta-1 (Homo sapiens, UniProt P23443). The assay can be described thus: Selectivity interaction (Kinase panel (Z-LYTE Assay)) EUB0001632a RPS6KB1. The settings on record: at 10 µM.
Assay [5] has as its target T2, Serine/threonine-protein kinase Sgk2 (Homo sapiens) (UniProt Q9HBY8).
T2 sequence (whole entry): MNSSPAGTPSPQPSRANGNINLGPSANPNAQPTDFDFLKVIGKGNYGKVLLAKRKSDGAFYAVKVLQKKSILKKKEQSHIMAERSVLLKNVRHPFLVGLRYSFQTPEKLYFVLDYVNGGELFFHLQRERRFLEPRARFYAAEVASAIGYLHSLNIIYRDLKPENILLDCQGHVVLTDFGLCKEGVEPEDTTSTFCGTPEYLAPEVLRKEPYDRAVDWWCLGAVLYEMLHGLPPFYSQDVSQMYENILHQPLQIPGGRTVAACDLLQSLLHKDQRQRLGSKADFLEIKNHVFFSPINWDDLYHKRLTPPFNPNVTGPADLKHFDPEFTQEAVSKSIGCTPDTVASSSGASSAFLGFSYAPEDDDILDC
Put plainly: Selectivity interaction (Kinase panel (Z-LYTE Assay)) EUB0001632a SGK2. The settings on record: at 10 µM.

The target in assay [6] is T3, Serine/threonine-protein kinase ICK (Homo sapiens) (UniProt Q9UPZ9).
T3 sequence (whole entry): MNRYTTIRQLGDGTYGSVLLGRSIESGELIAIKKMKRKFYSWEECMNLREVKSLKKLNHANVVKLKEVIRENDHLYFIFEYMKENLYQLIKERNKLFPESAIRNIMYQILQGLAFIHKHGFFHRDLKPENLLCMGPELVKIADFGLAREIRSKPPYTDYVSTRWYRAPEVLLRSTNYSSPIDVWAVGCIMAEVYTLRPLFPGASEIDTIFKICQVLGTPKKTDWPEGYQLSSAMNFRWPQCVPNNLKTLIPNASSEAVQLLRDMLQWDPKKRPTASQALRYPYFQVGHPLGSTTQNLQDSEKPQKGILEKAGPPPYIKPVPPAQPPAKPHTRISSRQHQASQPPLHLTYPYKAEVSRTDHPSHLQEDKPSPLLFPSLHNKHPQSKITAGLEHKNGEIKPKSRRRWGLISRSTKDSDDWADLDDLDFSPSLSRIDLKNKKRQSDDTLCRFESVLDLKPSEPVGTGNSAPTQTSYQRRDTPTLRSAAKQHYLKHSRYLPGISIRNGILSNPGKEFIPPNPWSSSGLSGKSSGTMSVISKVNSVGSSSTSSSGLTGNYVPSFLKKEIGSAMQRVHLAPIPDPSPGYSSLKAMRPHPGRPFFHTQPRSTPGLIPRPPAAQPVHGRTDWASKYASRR
Put plainly: Selectivity interaction (KinomeScan (DiscoverX)) EUB0000607a ICK. The settings on record: at 10 µM.

Assay [7] has as its target Mitogen-activated protein kinase kinase kinase 4 (Homo sapiens) (UniProt Q9Y6R4). The assay can be described thus: Selectivity interaction (KinomeScan (DiscoverX)) EUB0000229b MAP3K4. The settings on record: at 10 µM.
For assay [8], the target named is Tyrosine-protein kinase JAK1 (Homo sapiens, UniProt P23458). The assay can be described thus: Selectivity interaction (ActivX KiNativ screen (ex vivo kinase selectivity in human PBMCs)) EUB0001619a JAK1. The assay is classed as cell-based. The settings on record: PBMC, at 1 µM.
Chain of Tyrosine-protein kinase JAK1 (P23458 whole entry): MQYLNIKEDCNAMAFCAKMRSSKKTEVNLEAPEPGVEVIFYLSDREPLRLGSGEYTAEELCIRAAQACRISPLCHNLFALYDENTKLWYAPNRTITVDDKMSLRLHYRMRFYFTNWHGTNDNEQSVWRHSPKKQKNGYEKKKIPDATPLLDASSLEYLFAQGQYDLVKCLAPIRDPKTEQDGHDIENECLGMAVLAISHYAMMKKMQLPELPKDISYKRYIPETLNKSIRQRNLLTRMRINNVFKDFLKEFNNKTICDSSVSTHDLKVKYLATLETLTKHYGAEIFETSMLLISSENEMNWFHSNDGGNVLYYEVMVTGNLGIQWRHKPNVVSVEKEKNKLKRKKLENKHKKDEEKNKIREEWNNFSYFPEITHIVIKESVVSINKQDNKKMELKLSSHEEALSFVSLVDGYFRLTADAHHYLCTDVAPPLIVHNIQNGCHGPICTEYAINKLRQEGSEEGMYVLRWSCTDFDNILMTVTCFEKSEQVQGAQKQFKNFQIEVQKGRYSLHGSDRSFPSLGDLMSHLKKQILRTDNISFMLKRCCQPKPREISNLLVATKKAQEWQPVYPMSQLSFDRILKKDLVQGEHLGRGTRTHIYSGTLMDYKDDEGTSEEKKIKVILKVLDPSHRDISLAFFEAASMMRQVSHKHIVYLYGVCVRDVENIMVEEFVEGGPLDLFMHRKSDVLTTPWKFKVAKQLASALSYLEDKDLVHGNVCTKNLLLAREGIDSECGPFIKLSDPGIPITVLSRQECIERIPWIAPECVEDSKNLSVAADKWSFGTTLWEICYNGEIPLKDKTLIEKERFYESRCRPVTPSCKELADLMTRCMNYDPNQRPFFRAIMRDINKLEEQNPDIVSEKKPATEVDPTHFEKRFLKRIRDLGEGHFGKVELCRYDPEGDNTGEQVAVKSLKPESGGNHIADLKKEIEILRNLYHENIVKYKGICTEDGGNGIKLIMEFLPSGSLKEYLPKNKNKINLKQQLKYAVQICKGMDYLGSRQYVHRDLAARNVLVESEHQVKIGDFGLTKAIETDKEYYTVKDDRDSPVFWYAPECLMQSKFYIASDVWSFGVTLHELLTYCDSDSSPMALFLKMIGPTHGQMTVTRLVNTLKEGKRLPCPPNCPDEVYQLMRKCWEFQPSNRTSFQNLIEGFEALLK

Chain of Serine/threonine-protein kinase Nek6 (Homo sapiens) (Q9HC98 whole entry): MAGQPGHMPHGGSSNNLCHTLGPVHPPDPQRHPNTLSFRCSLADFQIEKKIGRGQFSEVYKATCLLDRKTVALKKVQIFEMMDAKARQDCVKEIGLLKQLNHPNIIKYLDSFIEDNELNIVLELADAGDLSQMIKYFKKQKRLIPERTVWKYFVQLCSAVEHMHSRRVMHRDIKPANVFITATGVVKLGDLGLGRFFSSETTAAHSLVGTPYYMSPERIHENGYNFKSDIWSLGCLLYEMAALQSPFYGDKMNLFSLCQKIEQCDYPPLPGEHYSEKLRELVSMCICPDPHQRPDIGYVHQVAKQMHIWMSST
Chain of Mitogen-activated protein kinase kinase kinase 4 (Homo sapiens) (Q9Y6R4 whole entry): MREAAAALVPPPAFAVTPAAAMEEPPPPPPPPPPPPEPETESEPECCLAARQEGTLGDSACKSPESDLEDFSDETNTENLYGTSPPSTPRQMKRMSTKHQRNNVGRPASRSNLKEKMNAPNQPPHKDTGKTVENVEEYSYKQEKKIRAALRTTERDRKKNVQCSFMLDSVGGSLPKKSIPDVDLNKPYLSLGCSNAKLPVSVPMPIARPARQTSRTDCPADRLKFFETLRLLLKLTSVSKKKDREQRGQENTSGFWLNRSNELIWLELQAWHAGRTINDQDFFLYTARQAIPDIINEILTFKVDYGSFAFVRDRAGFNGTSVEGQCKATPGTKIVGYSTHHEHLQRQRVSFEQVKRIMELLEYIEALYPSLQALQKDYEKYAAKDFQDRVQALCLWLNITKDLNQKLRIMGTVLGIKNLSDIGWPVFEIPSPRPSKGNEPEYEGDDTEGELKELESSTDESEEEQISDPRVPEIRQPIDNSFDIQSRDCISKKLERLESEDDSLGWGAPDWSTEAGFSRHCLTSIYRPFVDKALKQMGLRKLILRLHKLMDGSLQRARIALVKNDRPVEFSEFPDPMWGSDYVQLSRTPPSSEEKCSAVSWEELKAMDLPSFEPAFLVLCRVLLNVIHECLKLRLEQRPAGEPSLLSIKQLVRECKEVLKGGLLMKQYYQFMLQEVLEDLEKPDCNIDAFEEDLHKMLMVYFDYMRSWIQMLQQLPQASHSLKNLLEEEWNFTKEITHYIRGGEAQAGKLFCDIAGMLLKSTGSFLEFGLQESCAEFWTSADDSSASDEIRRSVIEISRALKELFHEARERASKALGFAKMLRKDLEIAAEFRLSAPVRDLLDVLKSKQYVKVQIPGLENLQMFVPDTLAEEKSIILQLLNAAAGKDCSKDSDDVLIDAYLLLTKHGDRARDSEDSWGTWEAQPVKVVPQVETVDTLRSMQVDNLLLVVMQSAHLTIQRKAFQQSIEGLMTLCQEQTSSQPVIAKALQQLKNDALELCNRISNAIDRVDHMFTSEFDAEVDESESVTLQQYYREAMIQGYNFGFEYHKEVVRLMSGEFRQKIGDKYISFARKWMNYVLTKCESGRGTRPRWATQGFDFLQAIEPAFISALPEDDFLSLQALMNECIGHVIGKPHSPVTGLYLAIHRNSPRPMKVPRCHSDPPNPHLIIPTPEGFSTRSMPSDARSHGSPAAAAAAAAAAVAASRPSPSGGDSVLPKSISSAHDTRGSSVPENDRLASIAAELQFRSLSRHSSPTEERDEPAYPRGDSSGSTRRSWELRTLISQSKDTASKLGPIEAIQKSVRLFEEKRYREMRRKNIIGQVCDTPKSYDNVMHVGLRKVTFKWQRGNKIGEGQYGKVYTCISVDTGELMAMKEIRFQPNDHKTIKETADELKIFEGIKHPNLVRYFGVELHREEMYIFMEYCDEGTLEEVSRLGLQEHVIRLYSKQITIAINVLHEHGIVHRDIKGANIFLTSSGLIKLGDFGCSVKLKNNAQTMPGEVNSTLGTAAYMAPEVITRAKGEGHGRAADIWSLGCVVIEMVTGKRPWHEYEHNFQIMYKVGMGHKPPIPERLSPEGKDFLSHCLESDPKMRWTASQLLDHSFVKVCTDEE
Chain of Protein kinase C eta type (Homo sapiens) (P24723 whole entry): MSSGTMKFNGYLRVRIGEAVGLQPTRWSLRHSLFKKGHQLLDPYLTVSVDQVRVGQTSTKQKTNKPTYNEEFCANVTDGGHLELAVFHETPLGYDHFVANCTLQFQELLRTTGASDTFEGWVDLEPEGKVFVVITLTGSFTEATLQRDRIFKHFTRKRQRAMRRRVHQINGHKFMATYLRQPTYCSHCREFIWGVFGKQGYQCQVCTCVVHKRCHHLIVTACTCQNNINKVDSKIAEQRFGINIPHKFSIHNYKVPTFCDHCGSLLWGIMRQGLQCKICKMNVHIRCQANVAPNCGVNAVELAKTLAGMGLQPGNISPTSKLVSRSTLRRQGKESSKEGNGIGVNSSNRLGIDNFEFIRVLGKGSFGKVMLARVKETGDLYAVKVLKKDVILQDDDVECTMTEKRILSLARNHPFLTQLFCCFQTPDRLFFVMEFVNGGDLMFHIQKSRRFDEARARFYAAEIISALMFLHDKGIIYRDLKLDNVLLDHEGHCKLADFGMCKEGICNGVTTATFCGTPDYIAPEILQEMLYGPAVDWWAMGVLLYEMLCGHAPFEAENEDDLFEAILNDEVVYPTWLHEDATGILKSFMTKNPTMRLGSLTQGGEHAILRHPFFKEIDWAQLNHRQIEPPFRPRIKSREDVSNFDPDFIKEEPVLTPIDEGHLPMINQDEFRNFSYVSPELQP
Chain of Ribosomal protein S6 kinase beta-1 (P23443 whole entry, looked up): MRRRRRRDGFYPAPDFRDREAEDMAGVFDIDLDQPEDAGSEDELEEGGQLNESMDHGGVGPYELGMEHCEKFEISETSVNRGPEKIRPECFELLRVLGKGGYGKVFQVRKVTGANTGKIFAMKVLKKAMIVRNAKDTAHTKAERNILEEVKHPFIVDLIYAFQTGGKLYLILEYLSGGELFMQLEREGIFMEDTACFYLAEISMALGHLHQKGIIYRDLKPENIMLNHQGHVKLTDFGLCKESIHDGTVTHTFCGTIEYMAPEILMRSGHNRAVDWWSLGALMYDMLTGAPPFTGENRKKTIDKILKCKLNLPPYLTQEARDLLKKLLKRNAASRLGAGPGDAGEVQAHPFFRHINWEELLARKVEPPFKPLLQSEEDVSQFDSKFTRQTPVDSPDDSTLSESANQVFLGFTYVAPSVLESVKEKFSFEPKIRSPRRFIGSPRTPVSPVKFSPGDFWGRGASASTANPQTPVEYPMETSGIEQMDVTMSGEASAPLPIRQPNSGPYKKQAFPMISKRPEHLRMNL

Compound `CN(C)C/C=C/C(=O)Nc1ccc(C(=O)N2CCCC(Nc3ncc(Cl)c(-c4c[nH]c5ccccc45)n3)C2)cc1` (stereo not drawn) had a % of control in assay [1] of 91%.

On to `CCN(CC)CCCCNc1ncc2cc(-c3cc(OC)cc(OC)c3)c(NC(=O)NC(C)(C)C)nc2n1`, for which the % of control in assay [2] was determined as 100%.

As for `O=C(NOC[C@H](O)CO)c1ccc(F)c(F)c1Nc1ccc(I)cc1F`, the % of control in assay [3] is 100%.

As for `Cn1cc(-n2cnc3c(NCc4nc5cc(Cl)c(Cl)cc5[nH]4)nc(N4CCOCC4)nc32)cn1`, the % of control in assay [4] turned out to be 2.46%; in assay [5], 8.85%.

`CNC(=O)Nc1ccc(-c2nc(N3CC4CCC(C3)O4)c3cnn(C4CCC5(CC4)OCCO5)c3n2)cc1` yielded a % of control in assay [6] of 87%.

For `COc1cc(N(C)c2ccnc3ccc(C(F)(F)F)cc23)cc(OC)c1OC`, in assay [7], the % binding was 100%.

Take `N#Cc1cccc(-c2c[nH]c3ncnc(N4CCOCC4)c23)c1`: in assay [8], the % of inhibition was determined as 19%.
